The values below come from patent US20130344026A1, “Dimeric Smac Mimetics” (priority 2009, published 2013).

Read-outs that look alike come from different tables or passages of the source.

This assay deals with PANC-1 cells. Nature of the assay: cell viability assay in PANC-1 cells (compound alone, + 100 ng/ml TNFa, + 300 ng/ml TRAIL). It is filed as cell-based.
Setting [1] is: PANC-1 cells, + 100 ng/ml TNFa, read-out: IC50 (uM) in cell viability assay in PANC-1 cells, Cmpnd + 100 ng/ml TNFa.
Where [2] appears, read: PANC-1 cells, + 300 ng/ml TRAIL, read-out: IC50 (uM) in cell viability assay in PANC-1 cells, Cmpnd + 300 ng/ml TRAIL.
Where [3] appears, read: Homo sapiens, PANC-1, compound alone, Tables 15-18, read-out: IC50 (uM) in cell viability assay in PANC-1 cells: Cmpnd alone.
[4] abbreviates: with 100 ng/ml TNFa, Tables 15-18, read-out: IC50 (uM) in cell viability assay in PANC-1 cells: Cmpnd + 100 ng/ml TNFa.
[5] abbreviates: with 300 ng/ml TRAIL, Tables 15-18, read-out: IC50 (uM) in cell viability assay in PANC-1 cells: Cmpnd + 300 ng/ml TRAIL.
Where [6] appears, read: Homo sapiens, PANC-1, compound alone, Tables 6-10, read-out: IC50 (μM) in cell viability assay in PANC-1 cells: Compound alone.
Where [7] appears, read: with 100 ng/ml TNFa, Tables 6-10, read-out: IC50 (μM) in cell viability assay in PANC-1 cells: Compound + 100 ng/ml TNFa.
Setting [8] is: with 300 ng/ml TRAIL, Tables 6-10, read-out: IC50 (μM) in cell viability assay in PANC-1 cells: Compound + 300 ng/ml TRAIL.
Setting [9] is: Homo sapiens, PANC-1 cells, compound alone, read-out: IC50 (uM) in cell viability assay in PANC-1 cells, Cmpnd alone.

Turning to `CN[C@@H](C)C(=O)N[C@H](C(=O)N1C[C@@H](NC(=O)C2CCCC(C(=O)N[C@H]3C[C@@H](C(=O)N[C@H](C)c4ccccc4)N(C(=O)[C@@H](NC(=O)[C@H](C)NC)C(C)(C)C)C3)C2)C[C@H]1C(=O)N[C@H](C)c1ccccc1)C(C)(C)C` (some centres unmarked) [Compound P3-97], the IC50 runs as follows: under setting [1], 0.059 µM; under setting [2], 0.065 µM; (PANC-1 cells, compound alone, read-out: IC50 (uM) in cell viability assay in PANC-1 cells, Cmpnd alone) greater than 1 µM.
Take `CC[C@@H](NC)C(=O)N[C@@H](C(=O)N[C@@H](C)C(=O)N[C@H](COCC#CC#CCOC[C@@H](NC(=O)C1CCCN1C(=O)[C@@H](NC(=O)[C@H](C)NC)C(C)(C)C)C1CCCCC1)C(C)C)C1CCCCC1` (some centres unmarked) [Compound H-9]: the IC50 was greater than 1 µM under setting [3], 0.005 µM under setting [4] and 0.004 µM under setting [5].
Turning to `CN[C@@H](C)C(=O)N[C@H](C(=O)N1CCC[C@H]1CN1C(=O)OC[C@@H]1Cc1ccccc1)[C@@H](C)OCC#CC#CCO[C@H](C)[C@H](NC(=O)[C@H](C)NC)C(=O)N1CCC[C@H]1CN1C(=O)OC[C@@H]1Cc1ccccc1` [Compound 82], the IC50 reads like this: under setting [6], greater than 1 µM; under setting [7], 0.536 µM; under setting [8], 0.564 µM.
On to `CN[C@@H](C)C(=O)N[C@H](C(=O)N[C@@H](CCNC(=O)c1ccc2cc(C(=O)N[C@H]3C[C@@H](C(=O)N[C@@H]4CCCc5ccccc54)N(C(=O)[C@@H](NC(=O)[C@H](C)NC)C(C)(C)C)C3)ccc2c1)C(=O)N[C@H](C)C(C)C)C(C)C` [Compound 185], for which the IC50 runs as follows: under setting [6], greater than 1 µM; under setting [7], 0.008 µM; under setting [8], 0.004 µM.
The matching figures for `CN[C@@H](C)C(=O)NC(C(=O)N[C@@H](CCC(=O)NCc1cn([C@H]2C[C@@H](C(=O)N[C@@H]3CCCc4ccccc43)N(C(=O)[C@@H](NC(=O)[C@H](C)NC)C(C)(C)C)C2)nn1)C(=O)N[C@H](C)C(C)C)C(C)C` (some centres unmarked) [Compound 202]: greater than 1 µM, 0.679 µM and 0.674 µM.
The matching figures for `CN[C@@H](C)C(=O)N[C@H](C(=O)N1C[C@@H](NC(=O)c2cccc(C(=O)N[C@H]3C[C@@H](C(=O)NCc4cccc5[nH]ccc45)N(C(=O)[C@@H](NC(=O)[C@H](C)NC)C(C)(C)C)C3)c2)C[C@H]1C(=O)NCc1cccc2[nH]ccc12)C(C)(C)C` [Compound 7]: greater than 1 µM, 0.383 µM and 0.217 µM.
The matching figures for `CN[C@@H](C)C(=O)N[C@H](C(=O)N1CCC[C@H]1Cn1cnnc1CCc1ccccc1)[C@@H](C)OCC#CC#CCO[C@H](C)[C@H](NC(=O)[C@H](C)NC)C(=O)N1CCC[C@H]1Cn1cnnc1CCc1ccccc1` [Compound 85]: greater than 1 µM, greater than 1 µM and greater than 1 µM.
Regarding `CN[C@@H](C)C(=O)N[C@@H](CCCCNC(=O)c1cccc(C(=O)NCCCC[C@H](NC(=O)[C@H](C)NC)C(=O)N2C[C@@H](Oc3ccccc3)C[C@H]2C(=O)N[C@@H]2CCCc3ccccc32)c1)C(=O)N1C[C@@H](Oc2ccccc2)C[C@H]1C(=O)N[C@@H]1CCCc2ccccc21` [Compound P2-36], the IC50 is greater than 1 µM under setting [3], 0.079 µM under setting [4] and 0.09 µM under setting [5].
For `CC[C@@H](NC(=O)[C@@H]1C[C@H](NC(=O)c2cccc(C(=O)N[C@H]3C[C@@H](C(=O)N[C@H](CC)c4ccccc4)N(C(=O)[C@@H](NC(=O)[C@H](C)NC)C(C)(C)C)C3)c2)CN1C(=O)[C@@H](NC(=O)[C@H](C)NC)C(C)(C)C)c1ccccc1` [Compound 2], the IC50 is, setting by setting: (compound alone, Tables 6-10, read-out: IC50 (μM) in cell viability assay in PANC-1 cells: Compound alone) greater than 1 µM; under setting [7], 0.062 µM; under setting [8], 0.054 µM.
In the case of `CN[C@@H](C)C(=O)N[C@@H](CCCCCC[C@H](NC(=O)[C@H](C)NC)C(=O)N1CCC[C@H]1CNC(=O)c1cnccn1)C(=O)N1CCC[C@H]1CNC(=O)c1cnccn1` [Compound 30], the IC50 by setting is: under setting [6], greater than 1 µM; under setting [7], greater than 1 µM; under setting [8], greater than 1 µM.
Regarding `CN[C@@H](C)C(=O)N[C@@H](CCC(=O)Nc1cccc(CCc2cccc(NC(=O)CC[C@H](NC(=O)[C@H](C)NC)C(=O)N3CCC[C@H]3C(=O)N[C@@H]3CCCc4ccccc43)c2)c1)C(=O)N1CCC[C@H]1C(=O)N[C@@H]1CCCc2ccccc21` [Compound P2-44], the IC50 by setting is: under setting [3], greater than 1 µM; under setting [4], 0.017 µM; under setting [5], 0.01 µM.
As for `CN[C@@H](C)C(=O)N[C@H](C(=O)N1C[C@@H](NC(=O)c2cccc(C(=O)N[C@H]3C[C@@H](C(=O)N[C@@H]4CCCc5cc(OC)ccc54)N(C(=O)[C@@H](NC(=O)[C@H](C)NC)C(C)(C)C)C3)c2)C[C@H]1C(=O)N[C@@H]1CCCc2cc(OC)ccc21)C(C)(C)C` [Compound 45], the IC50 is, setting by setting: under setting [6], greater than 1 µM; under setting [7], 0.008 µM; under setting [8], 0.014 µM.
Consider `CN[C@@H](C)C(=O)N[C@H](C(=O)N1CCCC1C(=O)N[C@H](COCC#CC#CCOC[C@@H](NC(=O)[C@H](C)NC(=O)[C@H](NC(=O)[C@@H](C)NC)C1CCCCC1)C(C)C)C1CCCCC1)C(C)(C)C` (some centres unmarked) [Compound 209], for which the IC50 is 0.0007 µM under setting [7] and 0.0007 µM under setting [8].
With `CN[C@@H](C)C(=O)N[C@H](C(=O)N1CCC[C@H]1C(=O)N[C@H](C)c1ccccc1)[C@H](C)NC(=O)CCCCC(=O)N[C@@H](C)[C@H](NC(=O)[C@H](C)NC)C(=O)N1CCC[C@H]1C(=O)N[C@H](C)c1ccccc1` [Compound 113], the IC50 is greater than 1 µM under setting [6], 0.208 µM under setting [7] and 0.203 µM under setting [8].
As for `C[C@H](N)C(=O)N[C@H](C(=O)N1C[C@@H](NC(=O)c2cccc(C(=O)N[C@H]3C[C@@H](C(=O)N[C@H]4CCCc5ccccc54)N(C(=O)[C@@H](NC(=O)[C@H](C)N)C(C)(C)C)C3)c2)C[C@H]1C(=O)N[C@H]1CCCc2ccccc21)C(C)(C)C` [Compound P3-106], the IC50 by setting is: under setting [9], greater than 1 µM; under setting [1], 0.193 µM; under setting [2], 0.115 µM.
With `CN[C@@H](C)C(=O)N[C@@H](CCCCNC(=O)C[C@H](NC(=O)[C@H](C)NC)C(=O)N1CCC[C@H]1C(=O)N[C@@H]1CCCc2ccccc21)C(=O)N1CCC[C@H]1C(=O)N[C@@H]1CCCc2ccccc21` [Compound 199], the IC50 was greater than 1 µM under setting [6], 0.046 µM under setting [7] and 0.074 µM under setting [8].
The matching figures for `CN[C@@H](C)C(=O)N[C@@H](CCCCNC(=O)c1cc(C(=O)NCCCC[C@H](NC(=O)[C@H](C)NC)C(=O)N2CCC[C@H]2Cn2nnnc2Sc2ccccc2)[nH]n1)C(=O)N1CCC[C@H]1Cn1nnnc1Sc1ccccc1` [Compound 208]: greater than 1 µM, 0.614 µM and greater than 1 µM.
The matching figures for `CN[C@@H](C)C(=O)N[C@@H](CC#CC#CC[C@H](NC(=O)[C@H](C)NC)C(=O)N1CCC[C@H]1CNC(=O)c1ccccc1)C(=O)N1CCC[C@H]1CNC(=O)c1ccccc1` [Compound 14]: greater than 1 µM, greater than 1 µM and greater than 1 µM.
On the same counts, the results for `CN[C@@H](C)C(=O)NC(C(=O)N1C[C@@H](NC(=O)c2cccc(C(=O)N[C@H]3CC(C(=O)N[C@@H]4CC5CCC4(C)C5(C)C)N(C(=O)[C@@H](NC(=O)[C@H](C)NC)C(C)(C)C)C3)c2)CC1C(=O)N[C@@H]1CC2CCC1(C)C2(C)C)C(C)(C)C` (some centres unmarked) [Compound 40] are greater than 1 µM, 0.555 µM and 0.517 µM.
For the compound `CN[C@@H](C)C(=O)N[C@H](C(=O)N[C@@H](CCNC(=O)c1cccc(C(=O)N[C@H]2C[C@@H](C(=O)N[C@@H]3CCCc4ccccc43)N(C(=O)[C@@H](NC(=O)[C@H](C)NC)C(C)(C)C)C2)c1)C(=O)N[C@H](C)C(C)C)C(C)(C)C` [Compound 176], the IC50 is, setting by setting: under setting [6], greater than 1 µM; under setting [7], 0.0199 µM; under setting [8], 0.0388 µM.
As to `CN[C@@H](C)C(=O)N[C@H](C(=O)N1C[C@@H](Oc2cccc(C#CC#Cc3cccc(O[C@H]4C[C@@H](C(=O)N[C@@H]5CCCc6ccccc65)N(C(=O)[C@@H](NC(=O)[C@H](C)NC)C(C)(C)C)C4)c3)c2)C[C@H]1C(=O)N[C@@H]1CCCc2ccccc21)C(C)(C)C` [Compound P3-103], the IC50 is greater than 1 µM under setting [9], 0.0316 µM under setting [1] and 0.037 µM under setting [2].
In the case of `CN[C@@H](C)C(=O)NC(C(=O)N[C@@H](CCNC(=O)CCc1cn([C@H]2C[C@@H](C(=O)N[C@@H]3CCCc4ccccc43)N(C(=O)[C@@H](NC(=O)[C@H](C)NC)C3CCCCC3)C2)nn1)C(=O)N[C@H](C)C(C)C)C(C)C` (some centres unmarked) [Compound 204], the IC50 by setting is: under setting [6], greater than 1 µM; under setting [7], 0.392 µM; under setting [8], 0.564 µM.
Regarding `CN[C@@H](C)C(=O)N[C@H](C(=O)N1C[C@@H](NC(=O)c2cccc(C(=O)N[C@H]3C[C@@H](C(=O)N[C@H](COC)[C@@H](C)OC)N(C(=O)[C@@H](NC(=O)[C@H](C)NC)C(C)(C)C)C3)c2)C[C@H]1C(=O)N[C@H](COC)[C@@H](C)OC)C(C)(C)C` [Compound 69], the IC50 reads like this: under setting [6], greater than 1 µM; under setting [7], greater than 1 µM; under setting [8], greater than 1 µM.
